Key:
[1] = molecular target: T1, Progestogen Receptor of Rabbit's Uterus (Oryctolagus cuniculus, UniProt P06186); test: Progestogen receptor of rabbit's uterus, relative bond affinity (RBA); type: binding; settings: vs tritiated Product R; for relative bond affinity (RBA), Progestogen, 2 H: incubation 2 H at 0° C.; for relative bond affinity (RBA), Progestogen, 24 H: incubation 24 H at 0° C.
T1 construct: The uteri were removed, weighed and homogenized at 0° C; from tissue; host or cells: uterus of estradiol-treated impubic rabbits, 105,000 g supernatant (cytosol)
T1 sequence (P06186 1-930): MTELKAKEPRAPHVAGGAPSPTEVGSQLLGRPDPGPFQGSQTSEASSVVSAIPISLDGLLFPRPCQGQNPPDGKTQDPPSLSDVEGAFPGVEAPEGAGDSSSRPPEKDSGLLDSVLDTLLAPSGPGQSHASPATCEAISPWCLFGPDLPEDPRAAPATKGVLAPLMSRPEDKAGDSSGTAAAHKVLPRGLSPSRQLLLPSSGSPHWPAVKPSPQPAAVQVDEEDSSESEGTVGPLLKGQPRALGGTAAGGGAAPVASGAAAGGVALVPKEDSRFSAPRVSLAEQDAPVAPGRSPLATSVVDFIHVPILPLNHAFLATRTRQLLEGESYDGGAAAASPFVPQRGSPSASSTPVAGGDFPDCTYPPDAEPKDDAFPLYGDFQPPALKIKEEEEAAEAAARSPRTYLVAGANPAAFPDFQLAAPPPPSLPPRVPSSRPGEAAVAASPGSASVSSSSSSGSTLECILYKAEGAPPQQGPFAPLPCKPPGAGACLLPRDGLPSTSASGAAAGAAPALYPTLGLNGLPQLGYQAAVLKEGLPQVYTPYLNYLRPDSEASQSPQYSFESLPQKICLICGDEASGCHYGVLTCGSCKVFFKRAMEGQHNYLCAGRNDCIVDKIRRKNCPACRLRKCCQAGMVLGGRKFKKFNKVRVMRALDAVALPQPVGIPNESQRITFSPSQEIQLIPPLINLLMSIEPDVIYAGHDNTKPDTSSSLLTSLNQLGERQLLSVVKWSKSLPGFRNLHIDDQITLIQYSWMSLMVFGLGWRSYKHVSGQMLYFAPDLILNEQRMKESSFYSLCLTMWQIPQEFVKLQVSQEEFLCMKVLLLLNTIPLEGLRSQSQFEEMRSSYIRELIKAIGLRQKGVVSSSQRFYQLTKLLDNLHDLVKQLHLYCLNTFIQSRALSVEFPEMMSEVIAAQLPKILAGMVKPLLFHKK
Protocol: Impubic rabbits weighing about 1 kg received a cutaneous application of […] of estradiol and 5 days after this treatment, the animals were killed. The uteri were removed, weighed and homogenized at 0° C., using a Potter teflon flask in a buffered TS solution (10 mM Tris, 0.25 M saccharose, HCl pH 7.4) (1 g of tissue per 50 ml of TS). The homogenate was then ultracentrifuged (105,000 g×90 min) at 0° C. The aliquots of the supernatant were incubated at 0° C. for a time t, with a constant concentration (T) of tritiated Product R (17,21-dimethyl-19-nor-Δ^4,9 -pregnadiene-3,20-dione) in the presence of increasing concentrations (0-2,500×10^-9 M) either of cold R, or of cold progesterone, or of cold product to be tested. The concentration of bound tritiated R (B) was then measured in each incubate by the technique of adsorption with carbon dextran.
(§1) The calculation of the relative bond affinity (RBA) was identical for both receptors.
(§2) The following 2 curves were drawn: the percentage of bound tritiated hormone B/T as a function of the logarithm of the concentration of the cold reference hormone and B/T as a function of the logarithm of the concentration of the cold tested product. The straight line of the equation [formula] was determined. B/T max=Percentage of bound tritiated hormone for an incubation of this tritiated hormone at the concentration (T).
(§3) B/T min=Percentage of the bound tritiated hormone for an incubation of this tritiated hormone at the concentration (T) in the presence of a large excess of cold hormone (2,500×10^-9 M).
(§4) The intersections of the straight line I50 and the curves enabled the concentrations of cold reference hormone (CH) and cold tested product (CX) which inhibited the bonding of the tritiated hormone on the receptor by 50% to be evaluated.
(§5) The relative bond affinity (RBA) of the tested product was determined by the equation: [formula]

[2] = molecular target: T2, Glucocorticoid Receptor of Rat's Thymus (Rattus norvegicus, UniProt P06536); test: Glucocorticoid receptor of rat's thymus, relative bond affinity (RBA); type: binding; settings: vs tritiated dexamethasone; for relative bond affinity (RBA), Glucocorticoid, 4 H: incubation 4 H at 0° C.; for relative bond affinity (RBA), Glucocorticoid, 24 H: incubation 24 H at 0° C.
T2 construct: The thymuses were removed and homogenized at 0° C; from tissue; host or cells: thymus of adrenalectomized male Sprague-Dawley rats, 105,000 g supernatant (cytosol)
T2 sequence (P06536 1-795): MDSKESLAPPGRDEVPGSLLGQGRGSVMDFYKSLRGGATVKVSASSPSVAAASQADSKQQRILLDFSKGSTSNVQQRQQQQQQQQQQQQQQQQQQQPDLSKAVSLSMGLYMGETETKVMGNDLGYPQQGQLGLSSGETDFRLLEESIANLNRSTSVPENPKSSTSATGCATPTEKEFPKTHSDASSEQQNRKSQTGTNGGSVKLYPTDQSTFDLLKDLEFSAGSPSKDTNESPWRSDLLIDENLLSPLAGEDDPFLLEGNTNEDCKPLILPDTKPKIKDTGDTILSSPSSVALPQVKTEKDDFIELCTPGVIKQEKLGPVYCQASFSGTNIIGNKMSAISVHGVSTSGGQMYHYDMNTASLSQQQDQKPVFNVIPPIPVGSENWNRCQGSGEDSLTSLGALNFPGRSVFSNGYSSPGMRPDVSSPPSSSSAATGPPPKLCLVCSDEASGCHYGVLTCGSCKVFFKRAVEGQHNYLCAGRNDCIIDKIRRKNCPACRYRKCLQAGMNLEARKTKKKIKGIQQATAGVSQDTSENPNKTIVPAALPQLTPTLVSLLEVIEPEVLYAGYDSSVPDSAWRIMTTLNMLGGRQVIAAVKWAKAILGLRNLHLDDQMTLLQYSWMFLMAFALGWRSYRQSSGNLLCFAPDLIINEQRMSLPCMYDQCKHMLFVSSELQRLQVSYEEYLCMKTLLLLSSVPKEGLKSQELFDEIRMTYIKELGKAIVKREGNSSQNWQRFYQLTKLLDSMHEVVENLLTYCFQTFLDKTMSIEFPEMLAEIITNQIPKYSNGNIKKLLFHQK
Protocol: Male Sprague-Dawley EOPS rats weighing 160 to 200 g were suprarenalectomized and 4 to 8 days after this removal, the animals were killed. The thymuses were removed and homogenized at 0° C. in a 10 mM Tris, 0.15M saccharose, 2 mM dithiothreitol, HCl pH 7.4 buffer using a Potter polytetra-fluoroethylene flask (1 g of tissue per 10 ml of TS). The homogenate was ultracentrifuged (105,000 g×90 min) at 0° C. and the aliquots of the supernatant were incubated at 0° C. for a time (t) with a constant concentration (T) of tritiated dexamethasone in the presence of increasing concentrations (0-2,500×10^-9 M)either of cold dexamethasone, or the cold product to be tested. The concentration of the bound tritiated dexamethasone (B) was measured in each incubate by the technique of adsorption with carbon dextran.
as §1, §2, §3, §4, §5

[3] = tested on: Thymocytes of suprarenalectomized rats; test: Antiglucocorticoid activity: tritiated uridine incorporation in thymocytes with dexamethasone; type: cell-based, rat; settings: for inhibition at 1 µM / inhibition at 0.1 µM / inhibition at 0.01 µM: Rattus norvegicus, Thymocyte, 5.10^-8 M dexamethasone, 37° C., 3 hours, read-out: % inhibition of the effect of the Dexamethasone; for inhibition at 1 µM: product at 10^-6 M; for inhibition at 0.1 µM: product at 10^-7 M; for inhibition at 0.01 µM: product at 10^-8 M
Protocol: The technique used was derived from the method of Dausse et al, Molecular Pharmacology, Vol. 13, p. 948-955 (1977) ("the relationship between glucocorticoid structure and effects upon Thymocytes"), for the thymocytes of mice. Thymocytes of suprarenalectomized rats were incubated at 37° C. for 3 hours in a nutritive medium containing 5.10^-8 M of dexamethasone in the presence or not of a product to be studied at different concentrations. Tritiated uridine was added, and the incubation was continued for one hour. The incubates were cooled, treated with a 5% solution of trichloroacetic acid, filtered on Whatman GF/A paper and washed three times using a solution of 5% trichloroacetic acid. The radioactivity retained by the filter paper was determined.

| SMILES | relative bond affinity (RBA), Progestogen, 2 H [1] | relative bond affinity (RBA), Progestogen, 24 H [1] | relative bond affinity (RBA), Glucocorticoid, 4 H [2] | relative bond affinity (RBA), Glucocorticoid, 24 H [2] | inhibition at 1 µM [3] [%] | inhibition at 0.1 µM [3] [%] | inhibition at 0.01 µM [3] [%] | incorporation of tritiated uridine ([3]; effect of dexamethasone itself, in words) |
| --- | --- | --- | --- | --- | --- | --- | --- | --- |
| C=C1C[C@]2(CC[C@H]3[C@@H]4CCC5=CC(=O)CCC5=C4[C@@H](c4ccc(N(C)C)cc4)C[C@@]32C)OC1=O [Example 2, γ-Lactone of 11β-[4-(dimethylamino)phenyl]21methylene-19-nor 17β-Δ^4,9-pregnadiene-17α-ol-3-one-21-carboxylic acid] | 86 | 36 | 136 | 59 |  |  |  |  |
| C=C1C[C@@]2(CC[C@H]3[C@@H]4CCC5=CC(=O)CCC5=C4[C@@H](c4ccc(N(C)C)cc4)C[C@@]32C)OC1=O [Example 1, γ-lactone of 11β-[4-(dimethylamino)phenyl] 21-methylene 19-nor 17α-Δ^4,9-pregnadiene-17β-ol-3-one-21-carboxylic acid] | 32 | 21 | 135 | 94 | 116 | 104 | 71 |  |
| C=C1C[C@@]2(CC[C@H]3[C@@H]4CCC5=CC(=O)CCC5=C4[C@@H](c4ccc(SC)cc4)C[C@@]32C)OC1=O [Example 3, γ-lactone of 11β-[4-(methylthio)phenyl]21-methylene 19-nor-17α-Δ^4,9-pregnadiene-17β-ol-3-one-21-carboxylic acid] |  |  |  |  | 133 | 69 | 24 |  |
| C[C@@H]1C[C@H]2[C@@H]3CCC4=CC(=O)C=C[C@]4(C)[C@@]3(F)[C@@H](O)C[C@]2(C)[C@@]1(O)C(=O)CO [dexamethasone, reference compound] |  |  |  |  |  |  |  | decrease |

Source: patent US5336686A, “17 Methylene lactones of steroids” (Roussel-Uclaf, priority 1992, dated 1994)
